These results are taken from patent publication US20070258912A1, “Use of Fluorescent Whitening Agents as Antimicrobials” (priority 2004, published 2007).

Each structure is given as a SMILES string. Where two headings read alike, the source gives them in different places.

Common to all, as to type: cell-based
Assay [1] deals with Corynebacterium xerosis. As to the kind of experiment: MIC in the agar incorporation test. On the procedure:
(§1) Determination of Minimum Inhibitory Concentration (MIC Values) in the Agar Incorporation Test
(§2) 1% stock solutions of the substances are prepared in an appropriate solvent and diluted in serial dilutions 1:2 (to yield end concentrations in the agar of 500-1.9 ppm). 0.3 ml of each dilution step is mixed with 15 ml of nutrient medium while the latter is still liquid. After the nutrient medium has solidified, 10 μl of each test strain in 0.85% NaCl solution are spotted onto the agar medium.
(§3) The plates are incubated at 37° C. for 24 hours and then the highest dilution (lowest concentration) of the test substance at which growth is no longer observable is determined.
(§4) Test Organisms: Staphylococcus aureus ATCC 6583 Staphylococcus epidermidis ATCC 12228 Corynebacterium xerosis ATCC 373 Propionibacterium acnes ATCC Escherichia coli ATCC 10536 Salmonella choleraesuis ATCC Klebsiella pneumoniae ATCC *Candida albicans ATCC 10231
(§5) *Aspergillus niger ATCC 6275

In the next assay the test system is Klebsiella pneumoniae. Description: MIC in the agar incorporation test. As to conditions: Mueller Hinton agar, 24 hours at 37° C. On the procedure: as §1, §2, §3, §4, §5
Another assay deals with Propionibacterium acnes. As to the kind of experiment: MIC in the agar incorporation test. As to conditions: Cutibacterium acnes, read-out: MIC Propionibacterium acnes. On the procedure: as §1, §2, §3, §4, §5
Assay [2] concerns Staphylococcus aureus. As to the kind of experiment: MIC in the agar incorporation test. On the procedure: as §1, §2, §3, §4, §5
The test system of the next assay is Staphylococcus epidermis. As to the kind of experiment: MIC in the agar incorporation test. On the procedure:
as §1, §2, §3, §4, §5

In assay [3] the test system is Corynebacterium minutissimum. As to the kind of experiment: MIC in the agar incorporation test. To be noted: read-out: MIC Corynebacterium minutissimum.
Assay [4] deals with Actinobacillus actinomycetemcomitans. Description: MIC against oral microorganisms via broth dilution. To be noted: Aggregatibacter actinomycetemcomitans, ATCC43718; broth dilution 0.94-15 ppm, 24 h aerobically with 10% CO2, ATCC 43718. On the procedure:
(§6) Determination of the Minimum Inhibition Concentration (MIC Value) Against Different Oral Microorganisms Via Broth Dilution
(§7) 1500 ppm stock solutions of the substances are prepared in ethanol and pipetted into the growth medium to yield concentrations between 0.94 and 15 ppm. Bacteria are taken from blood agar plates with cotton swabs and adjusted in the appropriate growth medium to yield an optical density corresponding to McFarland 0.5. This suspension is directly used in the case of F. nucleatum and P. nigrescens. For the other strains, the suspension is diluted 1:20. 0.1 ml of these bacterial suspensions are added to 2 ml of the substance solutions. After the incubation time, the tubes are assessed for growth (turbidity).
(§8) Test Organisms: *Actinobacillus actinomycetemcomitans ATCC 43718 *Stretococcus gordonii ATCC 10558 *Streptococcus mutans ATCC 33402 Actinomyces viscosus ATCC 43146 Fusobacterium nucleatum subsp. polymorphum ATCC 10953 Porphyromonas gingivalis ATCC 33277
(§9) Prevotella nigrescens ATCC 33563

For assay [5], the system named is Actinomyces viscosus. Description: MIC against oral microorganisms via broth dilution. On the procedure: as §6, §7, §8, §9
In general terms: In broth dilution the organism is exposed to a series of concentrations in liquid medium.

Assay [6] concerns Fusobacterium nucleatum subsp. polymorphum. As to the kind of experiment: MIC against oral microorganisms via broth dilution. As to conditions: ATCC10953, broth dilution 0.94-15 ppm, 7-10 days at 37° C. anaerobically, ATCC 10953, read-out: MIC Fusobacterium nucleatum subsp. polymorphum. On the procedure: as §6, §7, §8, §9
The subject of a further assay is Porphyromnas gingivalis. As to the kind of experiment: MIC against oral microorganisms via broth dilution. To be noted: read-out: MIC Porphyromnas gingivalis. On the procedure:
as §6, §7, §8, §9

Another assay deals with Prevotella nigrescens. As to the kind of experiment: MIC against oral microorganisms via broth dilution. On the procedure:
as §6, §7, §8, §9

For the next assay, the system named is Streptococcus gordonii. Description: MIC against oral microorganisms via broth dilution. On the procedure:
as §6, §7, §8, §9

A further assay relates to Streptococcus mutans. As to the kind of experiment: MIC against oral microorganisms via broth dilution. On the procedure: as §6, §7, §8, §9
In assay [7] the test system is Actinomyces viscosus ATCC 43146. As to the kind of experiment: Substantivity on hydroxyapatite and growth inhibition. To be noted: 500 ppm ethanolic solution; discs pretreated with artificial saliva; 6 and 24 hours at 37° C.; vs untreated control. On the procedure: Hydroxyapatite discs are incubated in artificial saliva (German Dental Magazine DZZ 5/2002) for 4 hrs under stirring, rinsed in NaCl, dried over night, and then incubated in ethanolic solutions of the test substances. Then all treated discs are put in 12 well Nucleon surface titre plates (one disc per well), and Caso Broth inoculated with the test strain. The titre plates are incubated at 37° C., samples are taken after 6 and 24 hrs and the colony count is determined by plate count.

Assay [8] relates to Escherichia coli. Description: MIC in the agar incorporation test. To be noted: ATCC10536, agar incorporation, Mueller Hinton agar, 24 hours at 37° C., ATCC 10536, read-out: MIC Escherichia coli. On the procedure: as §1, §2, §3, §4, §5
In another assay the test system is Salmonella choleraesuis. As to the kind of experiment: MIC in the agar incorporation test. To be noted: Salmonella enterica, Mueller Hinton agar, 24 hours at 37° C. On the procedure: as §1, §2, §3, §4, §5
For assay [9], the system named is Actinomyces viscosus. As to the kind of experiment: Microbicidal activity (suspension test, plate count). As to conditions: 120 ppm, ATCC 43146. On the procedure:
(§10) Determination of Microbicidal Activity
(§11) 1 g stock solution with an appropriate concentration of test products are mixed with 8 g water and then inoculated with 1 ml of the selected test organisms. After a given contact period, aliquots are taken, inactivated and diluted. The number of surviving bacteria per ml incubation assay is determined by plate count. Proper inactivation by the inactivating medium used was checked each time.
(§12) Diluent: tryptone water for microorganisms
(§13) • (0.1% tryptone (Oxoid), 0.85% NaCl, deion. water) • deion. water for test substances • inactivating medium for detection of surviving microorganisms Growth medium: casein soybean peptone agar Inactivating Medium: tryptic soy broth special • (10% w/w Tween 80, 3% w/w Lecithine, 0.1% w/w L-Histidine, • 0.055% w/w Sodium thiosulfate) Test organisms: Staphylococcus aureus ATCC 6538 • Escherichia coli ATCC 10536 • Actinomyces viscosus ATCC 43146 • Corynebacterium xerosis ATCC 373 Test concentration: 120 ppm and 1200 ppm Contact times: 5 and 30 minutes at 22° C.
(§14) Incubation time: 24 h at 37° C.

In assay [10] the test system is Corynebacterium xerosis. The description is as above. To be noted: 120 ppm, ATCC 373. On the procedure:
as §10, §11, §12, §13, §14

For assay [11], the system named is Escherichia coli. Described as above. As to conditions: 120 ppm, ATCC 10536. On the procedure:
as §10, §11, §12, §13, §14

Assay [12] concerns Staphylococcus aureus. The description is as above. As to conditions: 120 ppm, ATCC 6538. On the procedure:
as §10, §11, §12, §13, §14

The mark [13] stands for this setting: ATCC373, agar incorporation, Mueller Hinton agar, 24 hours at 37° C., ATCC 373, read-out: MIC Corynebacterium xerosis.
Where [14] appears, read: agar incorporation, Mueller Hinton agar, 24 hours at 37° C.
Where [15] appears, read: ATCC6583, agar incorporation, Mueller Hinton agar, 24 hours at 37° C., ATCC 6583, read-out: MIC Staphylococcus aureus.
The mark [16] stands for this setting: ATCC12228, agar incorporation, Mueller Hinton agar, 24 hours at 37° C., ATCC 12228, read-out: MIC Staphylococcus epidermis.
Where [17] appears, read: ATCC43146, broth dilution 0.94-15 ppm, 7-10 days at 37° C. anaerobically, ATCC 43146, read-out: MIC Actinomyces viscosus.
Where [18] appears, read: broth dilution 0.94-15 ppm, Columbia bouillon, 7-10 days at 37° C. anaerobically, ATCC 33277.
Setting [19] is: ATCC33563, broth dilution 0.94-15 ppm, Columbia bouillon, 7-10 days at 37° C. anaerobically, ATCC 33563, read-out: MIC Prevotella nigrescens.
The mark [20] stands for this setting: ATCC10558, broth dilution 0.94-15 ppm, 24 h aerobically with 10% CO2, ATCC 10558, read-out: MIC Streptococcus gordonii.
[21] abbreviates: ATCC33402, broth dilution 0.94-15 ppm, 24 h aerobically with 10% CO2, ATCC 33402, read-out: MIC Streptococcus mutans.

Regarding `CCN(CC)CCOc1ccccc1/C=C/c1ccc(/C=C/c2ccccc2OCCN(CC)CC)cc1` [formula 24], the MIC with Corynebacterium xerosis [1] (setting [13]) is 3.8 µg/mL; with Klebsiella pneumoniae, 120 µg/mL; with Propionibacterium acnes (setting [14]), 3.8 µg/mL; in the assay on Staphylococcus aureus [2] (setting [15]), 7.5 µg/mL; in the assay with Staphylococcus epidermis (setting [16]), 7.5 µg/mL; in assay [3] (setting [14]) it was 3.8 µg/mL. The MIC came out at 15 µg/mL in assay [4]; 3.75 µg/mL with Actinomyces viscosus [5] (setting [17]); 15 µg/mL in assay [6]; 1.9 µg/mL in the assay with Porphyromnas gingivalis (setting [18]); 1.9 µg/mL in the assay with Prevotella nigrescens (setting [19]); 7.5 µg/mL in the assay with Streptococcus gordonii (setting [20]). In addition, the MIC in the assay on Streptococcus mutans (setting [21]) was 7.5 µg/mL. Moreover, the “Growth inhibition of Actinomyces viscosus after adsorption on hydroxyapatite discs” value in assay [7] was “growth inhibition”.
In the case of `Cc1ccc(/C=C/c2ccc(/C=C/c3cccc(OCCCN(C)C)c3)cc2)c(OCCN(C)C)c1` [formula 29], the MIC was 3.1 µg/mL with Corynebacterium xerosis [1] (setting [13]); 200 µg/mL with Escherichia coli [8]; 25 µg/mL against Klebsiella pneumoniae; 3.1 µg/mL with Propionibacterium acnes (setting [14]); 200 µg/mL against Salmonella choleraesuis; 3.1 µg/mL with Staphylococcus aureus [2] (setting [15]). The MIC in the assay on Staphylococcus epidermis (setting [16]) stood at 3.1 µg/mL; in assay [3] (setting [14]), 6.3 µg/mL; in assay [4], 7.5 µg/mL; in the assay with Actinomyces viscosus [5] (setting [17]), 3.8 µg/mL; in [6], 3.8 µg/mL; in the assay with Porphyromnas gingivalis (setting [18]), 1.9 µg/mL. For the same molecule, the MIC was determined as 1.9 µg/mL in the assay on Prevotella nigrescens (setting [19]), 7.5 µg/mL in the assay with Streptococcus gordonii (setting [20]) and 3.8 µg/mL with Streptococcus mutans (setting [21]). Further, the “Microbicidal activity Actinomyces viscosus 120 ppm/5 min” value in the assay on Actinomyces viscosus [9] (5 min contact at 22° C.) is on record as 2.5 log reductions. In addition, the “Microbicidal activity Actinomyces viscosus 120 ppm/30 min” value in the assay with Actinomyces viscosus [9] (30 min contact at 22° C.) turned out to be 5 log reductions. Moreover, the “Microbicidal activity Corynebacterium xerosis 120 ppm/5 min” value in the assay on Corynebacterium xerosis [10] (5 min contact at 22° C.) was determined as 5 log reductions. Moreover, in the assay with Corynebacterium xerosis [10] (30 min contact at 22° C.), the “Microbicidal activity Corynebacterium xerosis 120 ppm/30 min” value is recorded as 5 log reductions. Besides, the “Microbicidal activity Escherichia coli 120 ppm/5 min” value in the assay with Escherichia coli [11] (5 min contact at 22° C.) came out at 5 log reduction. Besides, the “Microbicidal activity Escherichia coli 120 ppm/30 min” value in the assay with Escherichia coli [11] (30 min contact at 22° C.) is on record as 5 log reduction. For the same molecule, the “Microbicidal activity Staphylococcus aureus 120 ppm/5 min” value with Staphylococcus aureus [12] (5 min contact at 22° C.) is on record as 3 log reduction. In addition, the “Microbicidal activity Staphylococcus aureus 120 ppm/30 min” value in the assay on Staphylococcus aureus [12] (30 min contact at 22° C.) was determined as 5 log reduction.
Turning to `CC[N+](C)(C)CCCOc1ccccc1/C=C/c1ccc(-c2ccc(/C=C/c3ccccc3OCCC[N+](C)(C)CC)cc2)cc1` [formula 33], the MIC came to 31.3 µg/mL in the assay on Corynebacterium xerosis [1] (ATCC373, 24 h, read-out: MIC Corynebacterium xerosis); 3.9 µg/mL with Propionibacterium acnes (24 h); 3.9 µg/mL in the assay on Staphylococcus aureus [2] (ATCC6583, 24 h, read-out: MIC Staphylococcus aureus); 3.9 µg/mL in the assay on Staphylococcus epidermis (ATCC12228, 24 h, read-out: MIC Staphylococcus epidermis); 7.8 µg/mL in assay [3] (24 h); 3.8 µg/mL with Actinomyces viscosus [5] (ATCC43146, read-out: MIC Actinomyces viscosus). Also, the MIC was found to be 15 µg/mL with Porphyromnas gingivalis; 3.75 µg/mL in the assay on Prevotella nigrescens (ATCC33563, read-out: MIC Prevotella nigrescens); 3.75 µg/mL in the assay with Streptococcus gordonii (ATCC10558, 24 h, read-out: MIC Streptococcus gordonii); 1.88 µg/mL in the assay on Streptococcus mutans (ATCC33402, 24 h, read-out: MIC Streptococcus mutans). Further, in assay [7], the “Growth inhibition of Actinomyces viscosus after adsorption on hydroxyapatite discs” value is listed as “growth inhibition”.
